Literature values in patent US20090061517A1, “Cell culture apparatus and methods of making and using same” (priority 2007, published 2009).

Details: in humans

SMILES: C[C@H]1COc2c(N3CCN(C)CC3)c(F)cc3c(=O)c(C(=O)O)cn1c23 [levofloxacin]
- idiosyncratic hepatotoxicity / idiosyncratic adverse drug reactions: without liability for causing idiosyncratic adverse drug reactions

SMILES: N[C@@H]1[C@H]2CN(c3nc4c(cc3F)c(=O)c(C(=O)O)cn4-c3ccc(F)cc3F)C[C@@H]12 [trovafloxacin]
- idiosyncratic hepatotoxicity / idiosyncratic adverse drug reactions: linked to idiosyncratic hepatotoxicity in humans
